Measured values published in article PMC11873939, “Target Identification with Live-Cell Photoaffinity Labeling and Mechanism of Action Elucidation of ARN23765, a Highly Potent CFTR Corrector” (Journal of Medicinal Chemistry, 2025).

Columns and labels:
[1] = target: T1, F508del-CFTR (Homo sapiens, UniProt P13569, DEL508-508); test: HS-YFP functional assay in CFBE41o- cells stably overexpressing F508del-CFTR; format: cell-based; settings: 24 h treatment; for EC50 / HS-YFP assay in CFBE41o- cells EC50: 3 nM-10 µM range; for HS-YFP assay in CFBE41o- cells Emax: values normalized to DMSO-incubated cells
T1 construct: expressed in transfected cells
T1 sequence (P13569 with tags, fused parts or gaps DEL508-508): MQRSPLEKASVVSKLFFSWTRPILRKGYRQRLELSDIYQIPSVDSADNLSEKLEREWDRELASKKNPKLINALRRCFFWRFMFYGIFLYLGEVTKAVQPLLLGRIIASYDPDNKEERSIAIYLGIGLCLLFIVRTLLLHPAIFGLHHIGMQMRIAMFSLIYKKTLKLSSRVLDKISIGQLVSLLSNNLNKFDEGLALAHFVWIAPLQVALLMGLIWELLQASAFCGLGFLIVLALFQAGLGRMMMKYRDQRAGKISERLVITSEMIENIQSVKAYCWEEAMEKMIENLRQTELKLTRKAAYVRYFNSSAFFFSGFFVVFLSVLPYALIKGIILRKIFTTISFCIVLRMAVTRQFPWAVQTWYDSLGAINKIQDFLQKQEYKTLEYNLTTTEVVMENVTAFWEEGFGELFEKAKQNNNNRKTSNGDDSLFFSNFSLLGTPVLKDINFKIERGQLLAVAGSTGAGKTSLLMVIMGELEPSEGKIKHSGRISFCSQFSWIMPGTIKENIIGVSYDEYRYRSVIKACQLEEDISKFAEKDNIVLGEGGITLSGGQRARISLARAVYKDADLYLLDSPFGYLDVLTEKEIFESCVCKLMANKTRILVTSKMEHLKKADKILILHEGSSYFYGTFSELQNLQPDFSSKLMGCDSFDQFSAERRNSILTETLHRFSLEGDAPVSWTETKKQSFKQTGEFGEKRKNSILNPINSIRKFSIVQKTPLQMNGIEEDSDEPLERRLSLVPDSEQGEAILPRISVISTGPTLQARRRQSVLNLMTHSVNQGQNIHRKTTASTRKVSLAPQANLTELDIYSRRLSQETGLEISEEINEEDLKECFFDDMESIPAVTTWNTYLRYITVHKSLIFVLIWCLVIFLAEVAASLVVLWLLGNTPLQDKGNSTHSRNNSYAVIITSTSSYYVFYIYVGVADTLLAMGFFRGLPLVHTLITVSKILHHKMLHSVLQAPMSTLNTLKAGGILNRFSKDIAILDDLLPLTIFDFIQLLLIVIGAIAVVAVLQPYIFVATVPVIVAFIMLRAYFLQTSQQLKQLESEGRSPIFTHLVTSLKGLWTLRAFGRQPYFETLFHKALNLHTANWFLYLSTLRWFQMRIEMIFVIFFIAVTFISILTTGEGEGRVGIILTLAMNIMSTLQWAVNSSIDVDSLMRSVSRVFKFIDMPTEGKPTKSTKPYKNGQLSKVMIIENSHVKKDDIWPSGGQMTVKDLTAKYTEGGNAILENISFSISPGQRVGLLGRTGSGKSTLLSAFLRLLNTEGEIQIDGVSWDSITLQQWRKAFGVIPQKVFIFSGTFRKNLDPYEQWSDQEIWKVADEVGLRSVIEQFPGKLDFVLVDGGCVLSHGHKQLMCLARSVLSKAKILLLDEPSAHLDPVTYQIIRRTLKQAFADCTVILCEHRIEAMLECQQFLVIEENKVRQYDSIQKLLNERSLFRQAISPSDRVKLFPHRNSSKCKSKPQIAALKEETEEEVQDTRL
Protocol: These analogues were tested in the functional assay on the human bronchial epithelia-derived cell line, CFBE41o-, which stably overexpresses F508del-CFTR and the halide-sensitive yellow fluorescent protein (HS-YFP).[31] […]
HS-YFP-based assay for CFTR activity
Twenty-four hours after seeding on 96-well plates, CFBE41o- cells stably over-expressing F508del-CFTR and the HS-YFP were treated with test compounds at different concentrations in the 3 nM-10 µM range.1 Cells treated with vehicle alone (DMSO) and with ARN23765, respectively, served as negative and positive controls. The following day, cells were washed with PBS containing (in mM) 137 NaCl, 2.7 KCl, 8.1 Na2HPO4, 1.5 KH2PO4, 1.0 CaCl2, and 0.5 MgCl2. Cells were then incubated for 25 min with […] of PBS plus forskolin (20 µM) and VX-770 (1 µM) to maximally stimulate F508del-CFTR. Cells were then transferred to a microplate reader (FluoStar Galaxy; BMG Labtech, Offenburg, Germany) for CFTR activity determination. The plate reader was equipped with high-quality excitation (HQ500/20X: 500 ± 10 nm) and emission (HQ535/30M: 535 ± 15 nm) filters for YFP (Chroma Technology). Each assay comprised a continuous 14 s fluorescence reading, 2 s before and 12 s after injection of […] of an iodide-containing solution (PBS with Cl- replaced by I-; final I- concentration […]). Data were normalized to the initial background-subtracted fluorescence. To determine I- influx rate, the final 11 s of the data for each well were fitted with an exponential function to extrapolate initial slope (dF/dt). Reproducibility of results was confirmed by performing three independent experiments. […]

[2] = target: T2, wt-CFTR (Homo sapiens, UniProt P13569); test: Live-cell photoaffinity labeling, streptavidin pull-down and CFTR Western blot; format: binding; settings: wt-CFTR CFBE41o- cells, probe 1 μM; for CFTR in streptavidin pull-down (WB) after PAL: 2 h, UV 365 nm
T2 construct: expressed in transfected cells
T2 sequence (P13569 whole entry): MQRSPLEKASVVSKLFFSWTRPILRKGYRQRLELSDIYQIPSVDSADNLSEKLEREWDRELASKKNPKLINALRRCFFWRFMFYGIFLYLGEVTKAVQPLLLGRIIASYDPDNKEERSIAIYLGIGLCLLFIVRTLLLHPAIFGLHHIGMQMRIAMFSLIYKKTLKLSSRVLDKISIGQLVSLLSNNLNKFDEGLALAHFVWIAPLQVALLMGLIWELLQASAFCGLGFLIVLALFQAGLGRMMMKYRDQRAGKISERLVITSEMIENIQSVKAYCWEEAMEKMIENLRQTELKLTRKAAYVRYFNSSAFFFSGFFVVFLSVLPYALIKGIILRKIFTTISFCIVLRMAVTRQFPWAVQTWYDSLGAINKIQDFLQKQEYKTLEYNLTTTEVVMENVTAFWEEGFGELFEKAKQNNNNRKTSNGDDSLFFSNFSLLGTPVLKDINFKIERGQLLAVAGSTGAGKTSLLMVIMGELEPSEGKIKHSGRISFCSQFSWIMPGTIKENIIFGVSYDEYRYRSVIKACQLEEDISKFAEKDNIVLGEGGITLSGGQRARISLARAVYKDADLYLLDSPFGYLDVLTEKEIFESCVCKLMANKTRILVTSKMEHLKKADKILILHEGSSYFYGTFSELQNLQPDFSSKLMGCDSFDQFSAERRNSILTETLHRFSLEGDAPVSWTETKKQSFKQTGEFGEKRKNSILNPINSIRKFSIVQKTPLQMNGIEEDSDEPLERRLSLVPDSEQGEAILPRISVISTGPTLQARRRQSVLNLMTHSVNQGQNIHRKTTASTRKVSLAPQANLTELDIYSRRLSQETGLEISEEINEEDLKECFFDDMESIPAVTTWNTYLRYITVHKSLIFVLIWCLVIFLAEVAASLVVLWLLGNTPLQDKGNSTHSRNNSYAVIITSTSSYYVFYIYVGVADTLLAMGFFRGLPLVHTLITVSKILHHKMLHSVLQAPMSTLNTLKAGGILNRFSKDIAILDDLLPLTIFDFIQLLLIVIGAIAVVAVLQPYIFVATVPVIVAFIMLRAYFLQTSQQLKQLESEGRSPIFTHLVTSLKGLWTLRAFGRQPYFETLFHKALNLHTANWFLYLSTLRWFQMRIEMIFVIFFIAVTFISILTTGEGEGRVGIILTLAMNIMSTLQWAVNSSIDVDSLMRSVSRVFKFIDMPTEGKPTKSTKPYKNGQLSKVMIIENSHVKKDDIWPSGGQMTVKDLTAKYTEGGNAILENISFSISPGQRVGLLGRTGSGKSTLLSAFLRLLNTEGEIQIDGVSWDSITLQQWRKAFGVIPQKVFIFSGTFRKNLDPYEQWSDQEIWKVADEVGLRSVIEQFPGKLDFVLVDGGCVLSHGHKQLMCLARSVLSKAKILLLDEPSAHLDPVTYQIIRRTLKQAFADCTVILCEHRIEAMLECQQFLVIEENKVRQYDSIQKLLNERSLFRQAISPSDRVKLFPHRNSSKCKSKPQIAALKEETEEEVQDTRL
Protocol: (§1) Wt-CFTR or F508del-CFTR CFBE41o- cells were plated at 2–2.5 × 10^6 cells/plate in 6 cm diameter dishes. The day after, sodium butyrate (5–2.5 mM) was added for 24 h; next, the medium was exchanged with fresh one supplemented with DMSO (0.25%) (276855, Sigma-Aldrich) or probe (1 μM). For competition experiments, a 25-fold excess of ARN23765 (25 μM) was added 30 min before probe’s addition. For the analysis of “corrected” F508del-CFTR, F508del-CFTR CFBE41o- cells were kept at 27 °C for 24 h before adding the probes. Probes were incubated with cells for 2 h, then the medium was removed, and plates were washed twice with phosphate buffer saline (PBS). Cells were placed on ice and irradiated for 5 min at a wavelength of 365 nm using a 100-W UV-lamp (95–0127–02 model B100-AP, Analytik Jena). Cells were harvested with trypsin (T4299, Sigma-Aldrich), washed with PBS (D8537, Sigma-Aldrich), and pellets were stored at −80 °C until used, centrifuged at 300 × g and washed twice with PBS (D8537, Sigma-Aldrich). Pellets from in-cell photoaffinity labeling with alkyne-probes (PAP_1 and PAP_2) were lysed in PBS plus protease inhibitor cocktail (78429, Thermo Scientific) by sonication. The suspension was centrifuged at 800 × g for 20 min at 4 °C to discard nuclei and cell debris. The total extracted proteins were quantified with the bicinchoninic acid (BCA) protein assay (23225, Thermo Scientific) and subjected to CuAAC before proceeding with pull-down. Pellets from in-cell photoaffinity labeling with desthio-biotinylated (DS-biot) probes (PAP_1 DS-biot, PAP_2 DS-biot, PAP_N1 DS-biot, PAP_N2 DS-biot) were lysed with a modified RIPA buffer [50 mM tris-HCl pH 8, 150 mM NaCl, 0.5% Triton-X100, 0.2% SDS, 1 mM ethylenediaminetetraacetic acid (EDTA)] supplemented with protease inhibitor cocktail and centrifuged at 10.000× g for 10 min. The protein content in the supernatant was quantified by BCA protein assay. Protein lysate (200 μg) was diluted to 800 μL and the Triton-X100 percentage was reduced to 0.2% before proceeding to pull-down.
Copper-catalyzed azide–alkyne cycloaddition (CuAAC) was performed according to a previously described protocol.[62] Briefly, to the protein preparation (250 μL at 1 mg/mL protein concentration) the following reagents were added at the indicated final concentrations: 100 μM 5/6-TAMRA-azide-desthiobiotin (CLK-1110–5, Jena Bioscience), 1.0 mM tris-(2-carbossietil)phosphine (TCEP, C4706, Sigma-Aldrich), 100 μM tris-[(1-benzyl-1H-1,2,3-triazol-4-yl)methyl]amine (TBTA, 678937, Sigma-Aldrich), 1.0 mM CuSO4.5H2O (Sigma), and 0.8% sodium dodecyl sulfate (SDS). TBTA was first dissolved in DMSO at 83.5 mM and then diluted with four volumes of tert-butanol. The reaction was mixed by vortexing and incubated for 1 h at 25 °C. After the reaction time, proteins were precipitated with 5 volumes of cold acetone overnight at −20 °C. Samples were centrifuged for 20 min at 20.000× g, and the pellets were washed with methanol, air-dried, and finally resuspended with 600 μL of 1% SDS. SDS concentration was then diluted to 0.2% with PBS before proceeding to pull-down.
(§2) High capacity streptavidin agarose (20359, Thermo Scientific) (25 μL) was added to PAP-labeled cell extracts for 1 h at room temperature under gentle rotation. The streptavidin beads were collected by centrifugation and washed four times with lysis buffer. Resin-bound proteins were eluted with 45 μL of 5 mM biotin (B4501, Sigma-Aldrich) for 30 min at room temperature and analyzed with Western blot for CFTR expression. Input samples (4 and 8 μg for wt-CFTR and F508del-CFTR CFBE41o-, respectively) were collected immediately before incubation with streptavidin resin. Input and pulled-down samples were analyzed with WB as described in the supplementary methods.

[3] = target: T1, F508del-CFTR; test: as above; format: binding; settings: for CFTR in streptavidin pull-down (WB) after PAL: F508del-CFTR CFBE41o- cells, probe 1 μM, 2 h, UV 365 nm; for CFTR forms in streptavidin pull-down (WB) after PAL: F508del-CFTR CFBE41o- cells kept at 27 °C for 24 h (low-temperature rescue) before PAL
Protocol: as §1, §2

[4] = system: CFTR; test: Live-cell photoaffinity labeling in CFTR–/– CFBE41o- cells (control); format: binding, human; settings: probe 1 μM, 2 h

| Compound | EC50 [1] [nM] | HS-YFP assay in CFBE41o- cells Emax [1] | Effect in CFTR rescuing (HS-YFP assay, Figure S2) ([1]; vs DMSO) | HS-YFP assay in CFBE41o- cells EC50 [1] | CFTR in streptavidin pull-down (WB) after PAL [2] | CFTR in streptavidin pull-down (WB) after PAL [3] | CFTR forms in streptavidin pull-down (WB) after PAL [3] | CFTR in streptavidin pull-down (WB) after PAL [4] | CFTR in pull-down (WB) after PAL with alkyne probe and CuAAC DS-biot tagging ([2]; UV irradiation, CuAAC) |
| --- | --- | --- | --- | --- | --- | --- | --- | --- | --- |
| C[C@H]1NC(=O)N[C@H]1CCCCCC(=O)NCCOCCOCCOCCn1cc(CCC2(CCNC(=O)c3ccc(O[C@H]4CCCc5c(C(F)(F)F)nn(-c6cccc(C(=O)Nc7ccc8c(c7)OC(F)(F)O8)c6)c54)cc3)N=N2)nn1 [PAP_N1 DS-biot, N-(2,2-Difluorobenzo[d][1,3]dioxol-5-yl)-3-((S)-7-(4-((2-(3-(2-(1-(18-((4S,5R)-5-methyl-2-oxoimidazolidin-4-yl)-13-oxo-3,6,9-trioxa-12-azaoctadecyl)-1H-1,2,3-triazol-4-yl)ethyl)-3H-diazirin-3-yl)ethyl)carbamoyl)phenoxy)-3-(trifluoromethyl)-4,5,6,7-tetrahydro-1H-indazol-1-yl)benzamide] | – | – | – | devoid of activity | not pulled down | not pulled down | – | – | – |
| C[C@H]1NC(=O)N[C@H]1CCCCCC(=O)NCCOCCOCCOCCn1cc(CCC2(CCNC(=O)c3ccc(O[C@H]4CCCc5c(C(F)(F)F)nn(-c6cccc(C(=O)N(C)c7ccc8c(c7)OC(F)(F)O8)c6)c54)cc3)N=N2)nn1 [PAP_1 DS-biot, N-(2,2-Difluorobenzo[d][1,3]dioxol-5-yl)-N-methyl-3-((S)-7-(4-((2-(3-(2-(1-(18-((4S,5R)-5-methyl-2-oxoimidazolidin-4-yl)-13-oxo-3,6,9-trioxa-12-azaoctadecyl)-1H-1,2,3-triazol-4-yl)ethyl)-3H-diazirin-3-yl)ethyl)carbamoyl)phenoxy)-3-(trifluoromethyl)-4,5,6,7-tetrahydro-1H-indazol-1-yl)benzamide] | 122 | 2.7 | – | – | consistently captured | consistently captured | bound and pulled down both F508del-CFTR immature (band B) and mature (band C) protein | did not detect CFTR | – |
| C[C@H]1NC(=O)N[C@H]1CCCCCC(=O)NCCOCCOCCOCCn1cc(-c2ccc(O[C@H]3CCCc4c(C(F)(F)F)nn(-c5cccc(C(=O)N(C)c6ccc(C7(C(F)(F)F)N=N7)cc6)c5)c43)cc2)nn1 [PAP_2 DS-biot, N-Methyl-3-((S)-7-(4-(1-(18-((4S,5R)-5-methyl-2-oxoimidazolidin-4-yl)-13-oxo-3,6,9-trioxa-12-azaoctadecyl)-1H-1,2,3-triazol-4-yl)phenoxy)-3-(trifluoromethyl)-4,5,6,7-tetrahydro-1H-indazol-1-yl)-N-(4-(3-(trifluoromethyl)-3H-diazirin-3-yl)phenyl)benzamide] | 480 | 1.4 | – | – | consistently captured | consistently captured | bound and pulled down both F508del-CFTR immature (band B) and mature (band C) protein | did not detect CFTR | – |
| C[C@H]1NC(=O)N[C@H]1CCCCCC(=O)NCCOCCOCCOCCn1cc(-c2ccc(O[C@H]3CCCc4c(C(F)(F)F)nn(-c5cccc(C(=O)Nc6ccc(C7(C(F)(F)F)N=N7)cc6)c5)c43)cc2)nn1 [PAP_N2 DS-biot, 3-((S)-7-(4-(1-(18-((4S,5R)-5-Methyl-2-oxoimidazolidin-4-yl)-13-oxo-3,6,9-trioxa-12-azaoctadecyl)-1H-1,2,3-triazol-4-yl)phenoxy)-3-(trifluoromethyl)-4,5,6,7-tetrahydro-1H-indazol-1-yl)-N-(4-(3-(trifluoromethyl)-3H-diazirin-3-yl)phenyl)benzamide] | – | – | – | devoid of activity | not pulled down | not pulled down | – | – | – |

The next lines start with results.

| EC50 [1] [nM] | HS-YFP assay in CFBE41o- cells Emax [1] | Effect in CFTR rescuing (HS-YFP assay, Figure S2) ([1]; vs DMSO) | HS-YFP assay in CFBE41o- cells EC50 [1] | CFTR in streptavidin pull-down (WB) after PAL [2] | CFTR in streptavidin pull-down (WB) after PAL [3] | Compound | CFTR forms in streptavidin pull-down (WB) after PAL [3] | CFTR in streptavidin pull-down (WB) after PAL [4] | CFTR in pull-down (WB) after PAL with alkyne probe and CuAAC DS-biot tagging ([2]; UV irradiation, CuAAC) |
| --- | --- | --- | --- | --- | --- | --- | --- | --- | --- |
| 24 | 1.2 | no significant effect | – | – | – | CN(C(=O)c1cccc(-n2nc(C(F)(F)F)c3c2[C@@H](Oc2ccc(C(=O)O)cc2)CCC3)c1)c1ccc(C2(C(F)(F)F)N=N2)cc1 [Compound 2, (S)-4-((1-(3-(Methyl(4-(3-(trifluoromethyl)-3H-diazirin-3-yl)phenyl)carbamoyl)phenyl)-3-(trifluoromethyl)-4,5,6,7-tetrahydro-1H-indazol-7-yl)oxy)benzoic Acid] | – | – | – |
| 3.3 | 3 | – | – | – | – | C#Cc1ccc(O[C@H]2CCCc3c(C(F)(F)F)nn(-c4cccc(C(=O)N(C)c5ccc6c(c5)OC(F)(F)O6)c4)c32)cc1 [Compound 1, (S)-N-(2,2-Difluorobenzo[d][1,3]dioxol-5-yl)-3-(7-(4-ethynylphenoxy)-3-(trifluoromethyl)-4,5,6,7-tetrahydro-1H-indazol-1-yl)-N-methylbenzamide] | – | – | – |
| 385 | 2.1 | – | – | – | – | C#Cc1ccc(O[C@H]2CCCc3c(C(F)(F)F)nn(-c4cccc(C(=O)N(C)c5ccc(C6(C(F)(F)F)N=N6)cc5)c4)c32)cc1 [PAP_2, (S)-3-(7-(4-Ethynylphenoxy)-3-(trifluoromethyl)-4,5,6,7-tetrahydro-1H-indazol-1-yl)-N-methyl-N-(4-(3-(trifluoromethyl)-3H-diazirin-3-yl)phenyl)benzamide] | – | – | barely detect a band corresponding to CFTR |
| < 3 | 2.8 | – | – | – | – | C#CCCC1(CCNC(=O)c2ccc(O[C@H]3CCCc4c(C(F)(F)F)nn(-c5cccc(C(=O)N(C)c6ccc7c(c6)OC(F)(F)O7)c5)c43)cc2)N=N1 [PAP_1, (S)-3-(7-(4-((2-(3-(But-3-yn-1-yl)-3H-diazirin-3-yl)ethyl)carbamoyl)phenoxy)-3-(trifluoromethyl)-4,5,6,7-tetrahydro-1H-indazol-1-yl)-N-(2,2-difluorobenzo[d][1,3]dioxol-5-yl)-N-methylbenzamide] | – | – | – |
